The record followed here is patent US20160297833A1, “THIENOPYRIMIDINES AS MKNK1 AND MKNK2 INHIBITORS” (BAYER PHARMA AKTIENGESELLSCHAFT, priority 2013, published 2016).

What is called IC50 is the midpoint of a concentration-inhibition curve.

T1 sequence (Q9BUB5 1-424 isoform Q9BUB5-2 T344D): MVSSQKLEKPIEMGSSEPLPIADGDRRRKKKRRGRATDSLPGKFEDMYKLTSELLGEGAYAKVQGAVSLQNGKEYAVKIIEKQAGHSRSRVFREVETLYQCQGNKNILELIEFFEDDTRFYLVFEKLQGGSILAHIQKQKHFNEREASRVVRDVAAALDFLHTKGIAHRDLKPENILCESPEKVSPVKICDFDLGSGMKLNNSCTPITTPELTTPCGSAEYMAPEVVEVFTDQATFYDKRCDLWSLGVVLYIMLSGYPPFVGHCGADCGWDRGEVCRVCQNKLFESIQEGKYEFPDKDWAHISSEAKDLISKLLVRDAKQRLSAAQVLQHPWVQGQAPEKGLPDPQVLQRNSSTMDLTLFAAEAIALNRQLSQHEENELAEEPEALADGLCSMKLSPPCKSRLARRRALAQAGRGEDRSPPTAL

One assay addresses T1, human full-length MKNK1 (Homo sapiens, UniProt Q9BUB5, T385D).
T1 construct: GST (N); purchased Carna Biosciences 02-145; host or cells: insect cells (baculovirus expression system)
The experiment in a line: MKNK1 kinase high ATP assay (TR-FRET). The class given is biochemical.
Conditions: not given
The gist of the method:
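Full-length human MKNK1 (T385D) preincubated 15 min at 22 °C with compound in HEPES pH 7.5/MgCl2/DTT buffer; reaction with 2 mM ATP (final) and 0.06 μM biotinylated peptide (final), 30 min at 22 °C.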
Background: In TR-FRET formats the signal depends on donor and acceptor labels being close together.
In turn, `CCOc1cc2[nH]ncc2cc1Nc1ncnc2sc3c(c12)CC[C@H](C(=O)N1CCC(=O)CC1)C3` [Example 68, 1-({(7S)-4-[(6-Ethoxy-1H-indazol-5-yl)amino]-5,6,7,8-tetrahydro[1]benzothieno[2,3-d]pyrimidin-7-yl}carbonyl)piperidin-4-one] showed a half-maximal inhibitory concentration (IC50) of 0.3 nM.

The same assay, now with this note: Table 1; MKNK1 kinase high ATP assay, 2 mM ATP; read-out: MKNK1 IC50.
As for `C[C@H]1COCCN1C(=O)[C@H]1CCc2c(sc3ncnc(Nc4cc5cn[nH]c5cc4OCCN)c23)C1` [Example 131, [(7S)-4-{[6-(2-Aminoethoxy)-1H-indazol-5-yl]amino}-5,6,7,8-tetrahydro[1]benzothieno[2,3-d]pyrimidin-7-yl][(3S)-3-methylmorpholin-4-yl]methanone], the IC50 worked out at 0.4 nM. Consider `CN(C)C1CCN(c2cc3[nH]ncc3cc2Nc2ncnc3sc4c(c23)CC[C@H](C(=O)N2CCC2)C4)CC1` [Example 132, Azetidin-1-yl[(7S)-4-({6-[4-(dimethylamino)piperidin-1-yl]-1H-indazol-5-yl}amino)-5,6,7,8-tetrahydro[1]benzothieno[2,3-d]pyrimidin-7-yl]methanone], for which the IC50 was 27.2 nM.

Regarding `CN(C)C(=O)[C@H]1CCc2c(sc3ncnc(Nc4cc5cn[nH]c5cc4O[C@H]4CCOC4)c23)C1` [Example 280, (7S)—N,N-Dimethyl-4-({6-[(3S)-tetrahydrofuran-3-yloxy]-1H-indazol-5-yl}amino)-5,6,7,8-tetrahydro[1]benzothieno[2,3-d]pyrimidine-7-carboxamide], the IC50 was 1 nM. Consider `O=C([C@H]1CCc2c(sc3ncnc(Nc4ccc5[nH]ncc5c4)c23)C1)N1CCC1` [Example 3, Azetidin-1-yl[(7S)-4-(1H-indazol-5-ylamino)-5,6,7,8-tetrahydro[1]benzothieno[2,3-d]pyrimidin-7-yl]methanone], for which the IC50 is 11 nM. For the compound `CSc1cc2[nH]ncc2cc1Nc1ncnc2sc3c(c12)CC[C@H](C(=O)N1CCC1)C3` [Example 250, Azetidin-1-yl[(7S)-4-{[6-(methylsulfanyl)-1H-indazol-5-yl]amino}-5,6,7,8-tetrahydro[1]benzothieno[2,3-d]pyrimidin-7-yl]methanone], the IC50 came to 2.8 nM. Turning to `COc1cc2[nH]ncc2cc1Nc1ncnc2sc3c(c12)CC[C@H](C(=O)N1CC(N2CCCCC2)C1)C3` [Example 178, {(7S)-4-[(6-Methoxy-1H-indazol-5-yl)amino]-5,6,7,8-tetrahydro[1]benzothieno[2,3-d]pyrimidin-7-yl}[3-(piperidin-1-yl)azetidin-1-yl]methanone], the IC50 stood at 0.2 nM. Turning to `CN(C)C(=O)[C@H]1CCc2c(sc3ncnc(Nc4cc5cn[nH]c5cc4OCCNC(=O)CC4CCCC4)c23)C1` [Example 273, (7S)-4-[(6-{2-[(Cyclopentylacetyl)amino]ethoxy}-1H-indazol-5-yl)amino]-N,N-dimethyl-5,6,7,8-tetrahydro[1]benzothieno[2,3-d]pyrimidine-7-carboxamide], the IC50 was 0.4 nM. `CN(C)C(=O)[C@@H]1CCc2c(sc3ncnc(Nc4ccc5[nH]ncc5c4)c23)C1` [Example 2, (7R)-4-(1H-Indazol-5-ylamino)-N,N-dimethyl-5,6,7,8-tetrahydro[1]benzothieno[2,3-d]pyrimidine-7-carboxamide]: the IC50 is 118 nM. `CN(C)C(=O)[C@H]1CCc2c(sc3ncnc(Nc4cc5cn[nH]c5cc4OCCN=[N+]=[N-])c23)C1` [Example 107, (7S)-4-{[6-(2-Azidoethoxy)-1H-indazol-5-yl]amino}-N,N-dimethyl-5,6,7,8-tetrahydro[1]benzothieno[2,3-d]pyrimidine-7-carboxamide]: the IC50 is 10 nM.

Turning to `O=C([C@H]1CCc2c(sc3ncnc(Nc4cc5cn[nH]c5cc4Br)c23)C1)N1CCOCC1` [Example 237, {(7S)-4-[(6-Bromo-1H-indazol-5-yl)amino]-5,6,7,8-tetrahydro[1]benzothieno[2,3-d]pyrimidin-7-yl}(morpholin-4-yl)methanone], the IC50 was 2.8 nM. Take `CN(C)C1CCN(C(=O)[C@H]2CCc3c(sc4ncnc(Nc5cc6cn[nH]c6cc5OCCN5CCCC5)c34)C2)CC1` [Example 138, [4-(Dimethylamino)piperidin-1-yl][(7S)-4-({6-[2-(pyrrolidin-1-yl)ethoxy]-1H-indazol-5-yl}amino)-5,6,7,8-tetrahydro[1]benzothieno[2,3-d]pyrimidin-7-yl]methanone]: the IC50 amounted to 192 nM. On to `CC(C)Oc1cc2[nH]ncc2cc1Nc1ncnc2sc3c(c12)CC[C@H](C(=O)N1CCOC[C@@H]1C)C3` [Example 84, [(3S)-3-Methylmorpholin-4-yl][(7S)-4-{[6-(propan-2-yloxy)-1H-indazol-5-yl]amino}-5,6,7,8-tetrahydro[1]benzothieno[2,3-d]pyrimidin-7-yl]methanone], for which the half-maximal inhibitory concentration (IC50) amounted to 0.7 nM. For the compound `COCCN(C)C(=O)[C@H]1CCc2c(sc3ncnc(Nc4cc5cn[nH]c5cc4SC)c23)C1` [Example 253, (7S)—N-(2-Methoxyethyl)-N-methyl-4-{[6-(methylsulfanyl)-1H-indazol-5-yl]amino}-5,6,7,8-tetrahydro[1]benzothieno[2,3-d]pyrimidine-7-carboxamide], the 50% inhibitory concentration (IC50) is 1.9 nM. For `C[C@@H]1COCCN1C(=O)[C@H]1CCc2c(sc3ncnc(Nc4cc5cn[nH]c5cc4OCCN(C)C)c23)C1` [Example 114, [(7S)-4-({6-[2-(Dimethylamino)ethoxy]-1H-indazol-5-yl}amino)-5,6,7,8-tetrahydro[1]benzothieno[2,3-d]pyrimidin-7-yl][(3R)-3-methylmorpholin-4-yl]methanone], the IC50 turned out to be 34.2 nM. As to `C[C@H]1CN(C(=O)[C@H]2CCc3c(sc4ncnc(Nc5cc6cn[nH]c6cc5Br)c34)C2)C[C@H](C)O1` [Example 236, {(7S)-4-[(6-Bromo-1H-indazol-5-yl)amino]-5,6,7,8-tetrahydro[1]benzothieno[2,3-d]pyrimidin-7-yl}[(2S,6S)-2,6-dimethylmorpholin-4-yl]methanone], the 50% inhibitory concentration (IC50) amounted to 14.6 nM. With `C[C@H](N)COc1cc2[nH]ncc2cc1Nc1ncnc2sc3c(c12)CC[C@H](C(=O)N(C)C)C3` [Example 142, (7S)-4-[(6-{[(2S)-2-Aminopropyl]oxy}-1H-indazol-5-yl)amino]-N,N-dimethyl-5,6,7,8-tetrahydro[1]benzothieno[2,3-d]pyrimidine-7-carboxamide], the IC50 turned out to be 3.5 nM. Take `COc1cc2[nH]ncc2cc1Nc1ncnc2sc3c(c12)CC[C@H](C(=O)N(C)CCn1ccnc1)C3` [Example 171, (7S)—N-[2-(1H-Imidazol-1-yl)ethyl]-4-[(6-methoxy-1H-indazol-5-yl)amino]-N-methyl-5,6,7,8-tetrahydro[1]benzothieno[2,3-d]pyrimidine-7-carboxamide]: the IC50 is 0.4 nM. As to `CN(C)C(=O)[C@H]1CCc2c(sc3ncnc(Nc4cc5cn[nH]c5cc4N(C)CCC(C)(C)O)c23)C1` [Example 242, (7S)-4-({6-[(3-Hydroxy-3-methylbutyl)(methyl)amino]-1H-indazol-5-yl}amino)-N,N-dimethyl-5,6,7,8-tetrahydro[1]benzothieno[2,3-d]pyrimidine-7-carboxamide], the IC50 turned out to be 20.3 nM. Regarding `C=CCN(C)c1cc2[nH]ncc2cc1Nc1ncnc2sc3c(c12)CC[C@H](C(=O)N(C)C)C3` [Example 128, (7S)—N,N-Dimethyl-4-({6-[methyl(prop-2-en-1-yl)amino]-1H-indazol-5-yl}amino)-5,6,7,8-tetrahydro[1]benzothieno[2,3-d]pyrimidine-7-carboxamide], the IC50 stood at 1 nM.

The same assay, now with this note: Table 2; ratio of the IC50-value of an R-enantiomer and its corresponding S-enantiomer.
As to `CCOc1cc2[nH]ncc2cc1Nc1ncnc2sc3c(c12)CC[C@H](C(=O)N1CCC(=O)CC1)C3` [Example 68, 1-({(7S)-4-[(6-Ethoxy-1H-indazol-5-yl)amino]-5,6,7,8-tetrahydro[1]benzothieno[2,3-d]pyrimidin-7-yl}carbonyl)piperidin-4-one], the “Activity-Ratio MKNK1” value was found to be 9.0.
